Here are results for 31 molecules from patent US8710088B2, “Pharmaceutical and diagnostic compositions for use in the treatment and diagnosis of neurodegenerative diseases or amyloid diseases” (Max-Delbruck-Centrum fur Molekulare Medizin, priority 2004, dated 2014).

T3 sequence (P42858 with tags, fused parts or gaps with the stated changes limits assumed): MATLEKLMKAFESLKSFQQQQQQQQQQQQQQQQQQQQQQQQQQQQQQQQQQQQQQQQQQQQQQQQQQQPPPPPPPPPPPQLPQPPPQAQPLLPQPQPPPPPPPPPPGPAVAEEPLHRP
T2 sequence (P05067 672-713 limits assumed): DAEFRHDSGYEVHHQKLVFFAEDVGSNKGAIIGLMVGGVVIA
Sequence of amyloid-beta fibrils (P05067 672-713 limits assumed): as above
T1 sequence (P42858 with tags, fused parts or gaps with the stated changes limits assumed): as the sequence (P42858 with tags, fused parts or gaps with the stated changes limits assumed) above

One test has as its target T1, mutant huntingtin (GST fusion protein GST-HDQ51) (Homo sapiens, UniProt P42858, INS38QQQQQQQQQQQQQQQQQQQQQQQQQQQQQQ).
T1 construct: GST (N)
As to the kind of experiment: in vitro aggregation of mutant huntingtin, membrane filter test. In kind it is biochemical. The settings on record: membrane filter method. On the procedure:
As in the tests described by Heiser et al. (2002), the protein was used for aggregation tests to which either only solvent or solvent and the chemical agent in question was added. Aliquots of these batches were examined by means of the membrane filter test and electron microscopy.
As in the tests described by Heiser et al. (2002), the protein was used for aggregation tests to which either only solvent or solvent and 7-amino-8-(2,4-dihydroxy-6-methyl-phenyl)-1,9-dimethyl-phenoxazine-3-one was added. Aliquots of these batches were examined by means of the membrane filter test (FIG. 1B) and electron microscopy (FIGS. 1E and 1F).
For `CN1C(CO)=Nc2cccc3cccc1c23` [(1-methyl-1H-perimidine-2-yl)-methanol], the “Inhibition of the aggregation of huntingtin (Exon-1) (SDS-insoluble aggregates)” value is on record as “Inhibition of the aggregation”.

The next test addresses T2, wild type Aβ1-42 (Homo sapiens, UniProt P05067).
T2 construct: non-mutated (wild type) Aβ1-42
As to the kind of experiment: aggregation assay with wild type Aβ1-42, membrane filter method. The class given is biochemical. The settings on record: peptide 15 μM, pH 7.4, 42 h, 37° C. On the procedure: Analogously, the compounds were also examined in aggregation assays with the amyloid β-peptide Aβ1-42(E22Q), which is a particularly rapidly aggregating variant of amyloid β, as well as with non-mutated (wild type) Aβ1-42. For this purpose, the peptide was incubated at a concentration of 15 μM in a phosphate buffer with a physiological pH value of 7.4 for 42 h at 37° C. and subsequently, aliquots were examined by means of the membrane filter method (Figure) or electron microscopy (Figures) as well. […] Cell viability measurements were carried out in neuronally differentiated PC12 cells to which beta-amyloid and the substances to be tested were added extracellularly in order to examine whether the compounds are able to reduce toxicity caused by amyloid-beta. After 48 h the viability of the cells (approximately corresponds to the number of vital cells) was measured.
As for `CC1=Nc2cccc3cccc(c23)N1C` [1,2-dimethyl-1H-perimidine], the “Inhibition of the aggregation of wild type Aβ1-42 (SDS-insoluble aggregates)” value was “Inhibition of the aggregation”.

As for `Cc1cc(=O)cc2oc3cccc(C)c3nc1-2` [1,9-dimethyl-phenoxazine-3-one], the “Inhibition of the aggregation of wild type Aβ1-42 (SDS-insoluble aggregates)” value is on record as “Inhibition of the aggregation”.

Regarding `S=C1Nc2cccc3cccc(c23)N1` [1H,3H-perimidine-2-thione], the “Inhibition of the aggregation of wild type Aβ1-42 (SDS-insoluble aggregates)” value is recorded as “Inhibition of the aggregation”.

`c1cc2c3c(cccc3c1)NC(c1c[nH]cn1)=N2` [2-(1H-imidazole-4-yl)-1H-perimidine, 2-(1H-Imidazole-4-yl)-1H-perimidine]: the “Inhibition of the aggregation of wild type Aβ1-42 (SDS-insoluble aggregates)” value is on record as “Inhibition of the aggregation”.

Turning to `COC(=O)C1CC2=C(Cc3ccccc32)CN1c1ccco1` (stereo not shown) [2-Furan-2-yl-2,3,4,9-tetrahydro-1H-indenol[2,3-c]pyridine-3-carboxylic acid methyl ester], the “Inhibition of the aggregation of wild type Aβ1-42 (SDS-insoluble aggregates)” value was “Inhibition of the aggregation”.

Consider `Cc1ccc(C2=Nc3cccc4cccc(c34)N2)cc1` [2-p-tolyl-1H-perimidine], for which the “Inhibition of the aggregation of wild type Aβ1-42 (SDS-insoluble aggregates)” value is listed as “Inhibition of the aggregation”.

As to `c1cncc(C2=Nc3cccc4cccc(c34)N2)c1` [2-pyridine-3-yl-1H-perimidine], the “Inhibition of the aggregation of wild type Aβ1-42 (SDS-insoluble aggregates)” value was “Inhibition of the aggregation”.

Regarding `N#Cc1ccc(C2=Nc3cccc4cccc(c34)N2)cc1` [4-(1H-perimidine-2-yl)-benzonitrile], the “Inhibition of the aggregation of wild type Aβ1-42 (SDS-insoluble aggregates)” value is “Inhibition of the aggregation”.

With `Cc1cc(=O)cc2oc3cc(O)cc(C)c3nc1-2` [7-hydroxy-1,9-dimethyl-phenoxazine-3-one], the “Inhibition of the aggregation of wild type Aβ1-42 (SDS-insoluble aggregates)” value is listed as “Inhibition of the aggregation”.

Regarding `Cc1cc(O)cc(O)c1-c1c(O)cc2oc3cc(=O)c(-c4c(C)cc(O)cc4O)c(C)c-3nc2c1C` [beta-hydroxy-orcein], the “Inhibition of the aggregation of wild type Aβ1-42 (SDS-insoluble aggregates)” value was “Inhibition of the aggregation”.

A further test addresses T3, huntingtin (Homo sapiens, UniProt P42858, INS38QQQQQQQQQQQQQQQQQQQQQQQQQQQQQQ).
T3 construct: expressed in transfected cells; host or cells: COS1 cells, transient transfection
As to the kind of experiment: cell culture model of Huntington's chorea: COS1 cells transfected with pTL1-CAG51, membrane filter test. The settings on record: 40-44 h, membrane filter method. In kind it is cell-based. On the procedure:
The compounds were then tested in several cell culture models of polyglutamine diseases, inter alia Huntington's chorea. For this purpose, COS1 cells were transiently transfected with the plasmid pTL1-CAG51 already described above (Sittler, A., Walter, S., Wedemeyer, N., Hasenbank, R., Scherzinger, E., Eickhoff, H., Bates, G. P., Lehrach, H. and Wanker, E. E. (1998) Mol Cell 2, 427-36) and cultivated for 44 h in the presence of solvents or the chemical agents. Subsequently, the amount of aggregate was determined with the help of the membrane filter test as described by Heiser et al. (2002). […] The latter could be deduced from the total amount of protein in the cell lysate (FIG. 2B) which was determined with the help of cell extracts.
7-Amino-8-(2,4-dihydroxy-6-methyl-phenyl)-1,9-dimethyl-phenoxazine-3-one was then tested in a cell culture model of Huntington's chorea. For this purpose, COS1 cells were transiently transfected with the plasmid pTL1-CAG51 already described above (Sittler, A., Walter, S., Wedemeyer, N., Hasenbank, R., Scherzinger, E., Eickhoff, H., Bates, G. P., Lehrach, H. and Wanker, E. E. (1998) Mol Cell 2, 427-36) and cultivated for 40-44 h in the presence of solvents or 7-amino-8-(2,4-dihydroxy-6-methyl-phenyl)-1,9-dimethyl-phenoxazine-3-one. Subsequently, the amount of aggregate was determined with the help of the membrane filter test as described by Heiser et al. (2002). […] The latter could be deduced from the total amount of protein (FIG. 2B) which was determined with the help of cell extracts.
On to `C1=CC2=Nc3ccccc3OC2=CC1` [3H-phenoxazine, 3H-Phenoxazine], for which the “Inhibition of the aggregation of huntingtin in mammalian cells” value was “Inhibition of the aggregation”.

Consider `CCOC(=O)C(CC(C)C)c1nc(-c2ccccc2)ns1` (stereo not shown) [4-methyl-2-(3-phenyl-[1,2,4]thiadiazole-5-yl)-pentanoic acid ethyl ester], for which the “Inhibition of the aggregation of huntingtin in mammalian cells” value is “Inhibition of the aggregation”.

Regarding `O=C(Nc1nccs1)c1ccc(-c2ccc(C(=O)Nc3nccs3)o2)cc1` [5-[4-(Thiazole-2-ylcarbamoyl)-phenyl]-furan-2-carboxylic acid thiazole-2-ylamide], the “Inhibition of the aggregation of huntingtin in mammalian cells” value is “Inhibition of the aggregation”.

Take `Cc1cc(=O)cc2oc3cc(N)cc(C)c3nc1-2` [7-amino-1,9-dimethyl-phenoxazine-3-one]: the “Inhibition of the aggregation of huntingtin in mammalian cells” value was “Inhibition of the aggregation”.

As to `Cc1cc(O)cc(O)c1-c1c(N)cc2oc3cc(=O)c(-c4c(C)cc(O)cc4O)c(C)c-3nc2c1C` [beta-amino-orcein], the “Inhibition of the aggregation of huntingtin in mammalian cells” value is on record as “Inhibition of the aggregation”.

As to `O=c1ccc2nc3ccccc3oc-2c1` [phenoxazin-3-one], the “Inhibition of the aggregation of huntingtin in mammalian cells” value is “Inhibition of the aggregation”.

With alpha-hydroxy-orcein, the “Inhibition of the aggregation of huntingtin in mammalian cells” value is “Inhibition of the aggregation”.

A further test concerns the target amyloid-beta fibrils (Homo sapiens, UniProt P05067). Nature of the test: binding to amyloid-beta aggregates located on a cellulose acetate membrane. The settings on record: colored substances. The source says:
FIG. 16: Binding to amyloid-beta aggregates located on a cellulose acetate membrane
In the case of `Cc1cc(O)cc(O)c1-c1c(N)cc2oc3cc(=N)c(-c4c(C)cc(O)cc4O)c(C)c-3nc2c1C` [beta-amino-orceimine], the “direct binding to amyloid-beta fibrils” value is reported as “bind directly to amyloid-beta fibrils”.

`Cc1cc(O)cc(O)c1-c1c(N)cc2oc3cc(=O)c(-c4c(C)cc(O)cc4O)c(C)c-3nc2c1C` [beta-amino-orcein]: the “direct binding to amyloid-beta fibrils” value is “bind directly to amyloid-beta fibrils”.

`Cc1cc(O)cc(O)c1-c1c(O)cc2oc3cc(=O)c(-c4c(C)cc(O)cc4O)c(C)c-3nc2c1C` [beta-hydroxy-orcein]: the “direct binding to amyloid-beta fibrils” value is listed as “bind directly to amyloid-beta fibrils”.

Take `c1ccc2c(c1)Nc1ccccc1O2` [phenoxazine]: the “direct binding to amyloid-beta fibrils” value is “bind directly to amyloid-beta fibrils”.

Regarding `O=c1ccc2nc3ccccc3oc-2c1` [phenoxazone], the “direct binding to amyloid-beta fibrils” value was “bind directly to amyloid-beta fibrils”.

Take alpha-amino-orceimine: the “direct binding to amyloid-beta fibrils” value is listed as “bind directly to amyloid-beta fibrils”.

For the molecule alpha-hydroxy-orcein, the “direct binding to amyloid-beta fibrils” value is recorded as “bind directly to amyloid-beta fibrils”.

For the molecule gamma-amino-orcein, the “direct binding to amyloid-beta fibrils” value is reported as “bind directly to amyloid-beta fibrils”.

For a further test, the system named is huntingtin-Exon-1 with 103 glutamines (Htt103Q-EGFP). As to the kind of experiment: stably transfected PC12 cell line with inducible Htt103Q-EGFP, membrane filter test. The class given is cell-based. The settings on record: muristerone induced, 44 h, membrane filter method. On the procedure: The compounds were additionally tested in a stably transfected PC12 cell line. This cell line was transfected with an ecdysone-inducible plasmid whose N-terminal codes for huntingtin-Exon-1 marked with GFP with 103 glutamines (Htt103Q-EGFP). The Htt103Q-EGFP expression was induced with muristerone and the cells were subsequently cultivated for 44 h in the presence of solvents or the chemical agents. Subsequently, the amount of aggregate was determined with the help of the membrane filter test as described by Heiser et al. (2002). Furthermore, the amount of aggregate was determined with the help of a fluorescence measurement (data not shown). […] The latter could be deduced from the total amount of protein in the cell lysate (FIG. 2B) which was determined with the help of cell extracts.
For the molecule `CN(C)CCCNc1nc2c(ccc3[nH]c(=O)c(C#N)cc32)s1` [2-(3-dimethylamino-propylamino)-7-oxo-6,7-dihydro-thiazolo[4,5-f]quinoline-8-carbonitrile], the “Inhibition of the aggregation of huntingtin (Exon-1) in mammalian cells” value (“Inhibition … (Exon-1) in mammalian cells” below) is on record as “Inhibition of the aggregation”.

As for `N#Cc1cc2c(ccc3sc(N)nc32)[nH]c1=O` [2-Amino-7-oxo-6,7-dihydro-thiazolo[4,5-f]quinoline-8-carbonitrile], the “Inhibition … (Exon-1) in mammalian cells” value is listed as “Inhibition of the aggregation”.

Regarding `CCN(CC)CCN(CC)c1nc2c(ccc3[nH]c(=O)c(C#N)cc32)s1` [2-[(2-diethylamino-ethyl)-ethyl-amino]-7-oxo-6,7-dihydro-thiazolo[4,5-f]quinoline-8-carbonitrile], the “Inhibition … (Exon-1) in mammalian cells” value is recorded as “Inhibition of the aggregation”.

In the case of `CN(C)CCN(Cc1ccccc1)c1nc2c(ccc3[nH]c(=O)c(C#N)cc32)s1` [2-[Benzyl-(2-dimethylamino-ethyl)-amino]7-oxo-6,7-dihydro-thiazolo[4,5-f]quinoline-8-carbonitrile], the “Inhibition … (Exon-1) in mammalian cells” value is recorded as “Inhibition of the aggregation”.

Regarding `N#Cc1cc2c(ccc3sc(NCCN4CCCCC4)nc32)[nH]c1=O` [7-Oxo-2-(2-piperidine-1-yl-ethylamino)-6,7-dihydrothiazolo[4,5-f]quinoline-8-carbonitrile], the “Inhibition … (Exon-1) in mammalian cells” value was “Inhibition of the aggregation”.

On to `CC(=O)N(CCN(C)C)c1nc2c(ccc3[nH]c(=O)c(C#N)cc32)s1` [N-(8-Cyano-7-oxo-6,7-dihydro-thiazolo[4,5-f]quinoline-2-yl)-N-(2-dimethylamino-ethyl)-acetamide], for which the “Inhibition … (Exon-1) in mammalian cells” value is “Inhibition of the aggregation”.

Take `CN(C)CCN(C=O)c1nc2c(ccc3[nH]c(=O)c(C#N)cc32)s1` [N-(8-Cyano-7-oxo-6,7-dihydro-thiazolo[4,5-f]quinoline-2-yl)-N-(2-dimethylamino-ethyl-formamide]: the “Inhibition … (Exon-1) in mammalian cells” value is recorded as “Inhibition of the aggregation”.

For the molecule `CN(C)CCCN(C=O)c1nc2c(ccc3[nH]c(=O)c(C#N)cc32)s1` [N-(8-Cyano-7-oxo-6,7-dihydro-thiazolo[4,5-f]quinoline-2-yl)-N-(3-dimethylamino-propyl)-formamide], the “Inhibition … (Exon-1) in mammalian cells” value is reported as “Inhibition of the aggregation”.
